Laboratory results from patent US20030087963A1, “Methods of preparing and using 2-hydroxy derivatives of sibutramine and its metabolites” (priority 2001, published 2003).
Read-outs that look alike come from different tables or passages of the source.

How the values were obtained:
[1] = molecular target: T1, functional uptake of serotonin (5-HT) (Rattus norvegicus, UniProt P31652); assay: Inhibition of functional uptake of serotonin (5-HT) into synaptosomes from rat whole brain; assay type: biochemical
T1 construct: synaptosomes prepared from rat whole brain, hypothalamus, or corpora striata, respectively; from tissue; host or cells: rat whole brain synaptosomes
Description: (§1) The 2-hydroxy derivatives of the sibutramine metabolites N-desmethyl and N-didesmethylsibutramine (DMS and DDMS, respectively) were tested for their inhibition of functional uptake of serotonin (5-HT), norepinephrine (NE), or dopamine (DA), into synaptosomes prepared from rat whole brain, hypothalamus, or corpora striata, respectively, using methods known in the art. In addition, binding was determined at the nonselective muscarinic receptor and the […] from rat cerebral cortex and rat adipose tissue, respectively.
(§2) IC50 values (concentration inhibiting control activity by 50 percent) were then determined by nonlinear regression analysis of the inhibition curves and tabulated below.

[2] = molecular target: T2, functional uptake of norepinephrine (NE) (Rattus norvegicus, UniProt Q63380); assay: Inhibition of functional uptake of norepinephrine (NE) into synaptosomes from rat hypothalamus; assay type: biochemical
T2 construct: synaptosomes prepared from rat whole brain, hypothalamus, or corpora striata, respectively; from tissue; host or cells: rat hypothalamus synaptosomes
Description: as §1, §2

[3] = molecular target: T3, functional uptake of dopamine (DA) (Rattus norvegicus, UniProt P23977); assay: Inhibition of functional uptake of dopamine (DA) into synaptosomes from rat corpora striata; assay type: biochemical
T3 construct: synaptosomes prepared from rat whole brain, hypothalamus, or corpora striata, respectively; from tissue; host or cells: rat corpora striata synaptosomes
Description: as §1, §2

[4] = molecular target: nonselective muscarinic receptor; assay: Binding at the nonselective muscarinic receptor from rat cerebral cortex
Description: as §1, §2

[5] = synaptosomes from rat hypothalamus, read-out: IC50, NE functional uptake

T3 sequence (P23977 whole entry): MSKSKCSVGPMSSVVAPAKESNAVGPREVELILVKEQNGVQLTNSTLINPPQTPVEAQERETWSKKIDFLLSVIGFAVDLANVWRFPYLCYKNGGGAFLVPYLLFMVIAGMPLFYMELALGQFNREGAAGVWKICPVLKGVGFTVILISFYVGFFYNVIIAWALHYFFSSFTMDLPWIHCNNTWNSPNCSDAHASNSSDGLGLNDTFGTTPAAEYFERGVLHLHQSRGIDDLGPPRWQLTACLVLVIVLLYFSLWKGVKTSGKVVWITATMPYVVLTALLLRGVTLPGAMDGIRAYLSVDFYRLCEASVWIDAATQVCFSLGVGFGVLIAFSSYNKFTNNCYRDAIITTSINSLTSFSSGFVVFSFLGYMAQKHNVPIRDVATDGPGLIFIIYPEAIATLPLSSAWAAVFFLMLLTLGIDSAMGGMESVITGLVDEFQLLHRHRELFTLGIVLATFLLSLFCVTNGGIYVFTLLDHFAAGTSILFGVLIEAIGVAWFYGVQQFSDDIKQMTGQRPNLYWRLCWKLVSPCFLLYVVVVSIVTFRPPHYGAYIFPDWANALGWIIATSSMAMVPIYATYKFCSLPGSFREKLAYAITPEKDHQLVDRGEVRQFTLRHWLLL
T1 sequence (P31652 whole entry): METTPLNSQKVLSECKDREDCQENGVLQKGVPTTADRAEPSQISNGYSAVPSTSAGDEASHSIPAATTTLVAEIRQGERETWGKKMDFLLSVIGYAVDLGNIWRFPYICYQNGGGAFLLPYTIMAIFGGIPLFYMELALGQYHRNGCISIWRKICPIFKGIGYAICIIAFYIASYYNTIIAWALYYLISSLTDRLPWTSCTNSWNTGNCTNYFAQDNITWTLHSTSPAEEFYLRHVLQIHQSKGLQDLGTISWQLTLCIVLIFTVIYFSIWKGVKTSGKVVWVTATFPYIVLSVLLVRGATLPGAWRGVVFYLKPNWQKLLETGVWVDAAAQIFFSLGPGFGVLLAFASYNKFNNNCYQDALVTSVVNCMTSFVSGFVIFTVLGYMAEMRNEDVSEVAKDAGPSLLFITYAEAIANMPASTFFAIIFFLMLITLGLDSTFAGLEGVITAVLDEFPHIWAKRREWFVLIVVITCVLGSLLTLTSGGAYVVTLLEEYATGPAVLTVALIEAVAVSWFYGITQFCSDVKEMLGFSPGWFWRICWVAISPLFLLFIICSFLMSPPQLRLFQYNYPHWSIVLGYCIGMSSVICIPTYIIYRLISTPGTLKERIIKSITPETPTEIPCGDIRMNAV
T2 sequence (Q63380 1-617): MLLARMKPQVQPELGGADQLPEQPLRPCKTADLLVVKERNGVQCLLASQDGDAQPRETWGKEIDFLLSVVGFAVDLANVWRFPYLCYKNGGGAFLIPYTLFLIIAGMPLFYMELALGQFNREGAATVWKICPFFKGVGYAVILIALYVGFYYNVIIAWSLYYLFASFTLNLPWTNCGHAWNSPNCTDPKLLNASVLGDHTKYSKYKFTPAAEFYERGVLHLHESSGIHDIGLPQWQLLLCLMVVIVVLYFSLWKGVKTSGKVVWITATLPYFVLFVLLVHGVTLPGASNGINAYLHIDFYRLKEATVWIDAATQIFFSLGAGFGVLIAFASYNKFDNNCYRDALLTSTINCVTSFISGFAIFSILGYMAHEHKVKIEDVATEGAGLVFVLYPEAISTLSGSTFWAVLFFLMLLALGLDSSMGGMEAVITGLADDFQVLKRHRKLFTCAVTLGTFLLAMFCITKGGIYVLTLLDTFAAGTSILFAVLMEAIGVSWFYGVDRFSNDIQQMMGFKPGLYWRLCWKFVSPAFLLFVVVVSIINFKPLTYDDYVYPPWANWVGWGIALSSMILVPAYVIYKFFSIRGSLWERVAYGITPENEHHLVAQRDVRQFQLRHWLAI

With CC(C)(O)C[C@@H](N)C1(c2ccc(Cl)cc2)CCC1 [2-(R)-OH-DDMS, (R)-(−)-4-amino-[1-(4-chlorophenyl)cyclobutyl]-2-methyl-butan-2-ol] the IC50 [1] was 7.2 nM, the IC50 [2, 5] was 6.2 nM and the IC50 [3] was 18 nM.

CN[C@H](CC(C)(C)O)C1(c2ccc(Cl)cc2)CCC1 [2-(R)-OH-DMS, (R)-(+)-4-[1-(4-Chloro-phenyl)-cyclobutyl]-2-methyl-4-methylamino-butan-2-ol] was tested, and the IC50 [1] was 22 nM, the IC50 [2] was 23 nM and the IC50 [3] was 48 nM. For the same compound, the IC50 [4] was 8.97 µM.

With CC(C)(O)C[C@H](N)C1(c2ccc(Cl)cc2)CCC1 [2-(S)-OH-DDMS, (S)-(+)-4-amino-[1-(4-chlorophenyl)cyclobutyl]-2-methyl-butan-2-ol] the IC50 [1] was 670 nM, the IC50 [2, 5] was 71 nM and the IC50 [3] was 59 nM.

With CN[C@@H](CC(C)(C)O)C1(c2ccc(Cl)cc2)CCC1 [2-(S)-OH-DMS] the IC50 [1] was 5400 nM, the IC50 [2] was 310 nM and the IC50 [3] was 370 nM. It also gave an IC50 [4] of 4.48 µM.

CN1[C@@H]2CC[C@H]1C[C@@H](OC(=O)C(CO)c1ccccc1)C2 (stereo partly drawn) [Atropine, reference compound] was tested, and the IC50 [4] was 0.00038 µM.
